# Laboratory results: US20240287138A1, “CYCLIC PEPTIDES FOR INHIBITING TNF RECEPTOR 1 ACTIVITY” (Merck Sharp & Dohme LLC, priority 2023, published 2024)
# Read-outs that look alike come from different tables or passages of the source. Numbered stars: 1 amine (or outer) side, 2 acyl side, 3 side chain; on linkers, the order of the positions; unused ones are H or OH. Bridge positions count the residues as written; N and C are the ends. Square brackets hold non-standard residues; d marks the D form. Peptide text beside a SMILES is read from it. * marks the point of attachment. Trp(βS-Me,7-OMe) = COc1cccc2c([C@H](C)[C@H](N)C(=O)O)c[nH]c12; Trp(1-CH2COOH) = N[C@@H](Cc1cn(CC(=O)O)c2ccccc12)C(=O)O; Morpholine(3S-CO,6,6-Me2) = CC1(C)CN[C@H](C(=O)O)CO1; Ala(indazol-1-yl) = N[C@@H](Cn1ncc2ccccc21)C(=O)O; Trp(7-CN) = N#Cc1cccc2c(C[C@H](N)C(=O)O)c[nH]c12; Trp(7-Cl) = N[C@@H](Cc1c[nH]c2c(Cl)cccc12)C(=O)O; Phe(3-CONH2) = NC(=O)c1cccc(C[C@H](N)C(=O)O)c1; Phe(4-CONH2) = NC(=O)c1ccc(C[C@H](N)C(=O)O)cc1; Phe(4-COOH) = N[C@@H](Cc1ccc(C(=O)O)cc1)C(=O)O; 4Pal(3S-Me) = C[C@@H](c1ccncc1)[C@H](N)C(=O)O; X9 = CN(C)[C@@H]1C[C@H](C(=O)[*:2])N([*:1])C1; dPro(4S-NH2) = N[C@@H]1CN[C@@H](C(=O)O)C1; Pip(5R-OH) = O=C(O)[C@@H]1CC[C@@H](O)CN1; X1 = O=C([C@@H]1CC[C@H](N[*:1])C1)[*:2]; Pip(4-aza) = O=C(O)[C@@H]1CNCCN1; 4Pal = N[C@@H](Cc1ccncc1)C(=O)O; Abu(4-CN) = N#CCC[C@H](N)C(=O)O; NMeE = CN[C@@H](CCC(=O)O)C(=O)O; dHyp = O=C(O)[C@H]1C[C@H](O)CN1; Gly(N-CH2CH2OH) = O=C(O)CNCCO; Ahp(2) = CCCCC[C@H](N)C(=O)O; NEtAla = CCN[C@@H](C)C(=O)O; αMeS = C[C@](N)(CO)C(=O)O; Carboxymethyl = O=C(O)C*; Nle = CCCC[C@H](N)C(=O)O; Sar = CNCC(=O)O
# Assays:
# [1] = target: T1, TNFα-induced NF-κB signal transduction pathway (TNFR1 signaling) in THP-1 cells (Homo sapiens, UniProt P19438); test: THP-1 Lucia NF-κB reporter cell assay, inhibition of TNFα-induced NF-κB signaling; assay type: cell-based; conditions: THP-1 NF-κB Lucia reporter cells, 10 ng/mL TNFα, 16-18 h, secreted luciferase; read-out: THP-1 IC50
# T1 sequence (P19438 30-455): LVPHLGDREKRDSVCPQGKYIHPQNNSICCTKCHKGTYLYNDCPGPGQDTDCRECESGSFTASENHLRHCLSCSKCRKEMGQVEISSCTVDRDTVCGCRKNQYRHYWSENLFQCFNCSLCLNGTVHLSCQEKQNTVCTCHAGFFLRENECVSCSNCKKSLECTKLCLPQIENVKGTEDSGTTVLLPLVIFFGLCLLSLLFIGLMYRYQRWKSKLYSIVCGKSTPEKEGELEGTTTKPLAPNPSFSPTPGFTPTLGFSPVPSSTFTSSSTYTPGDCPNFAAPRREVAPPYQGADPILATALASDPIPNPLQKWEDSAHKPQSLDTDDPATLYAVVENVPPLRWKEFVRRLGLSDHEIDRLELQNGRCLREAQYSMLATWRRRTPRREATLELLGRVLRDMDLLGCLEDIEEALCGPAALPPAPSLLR
# How it was run: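 Read-out: secreted Lucia luciferase luminescence (QUANTI-Luc) from supernatant after 16-18 h, 37 °C, 10 ng/mL rhTNFα. Peptide pretreatment 1 h at 37 °C; 20,000 cells/well, selection antibiotics omitted. IC50 via 4-parameter logistic model against min/max controls.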
# [2] = target: T2, human TNFR2 ECD protein (Homo sapiens, UniProt P20333); test: SPR off-target binding (selectivity) to human TNFR2 ECD
# T2 construct: HRV 3C protease cleavage site (C); 6His (C, cleaved yes); made in house; host or cells: Sf21 insect cells (baculovirus), secreted
# T2 sequence (P20333 23-257): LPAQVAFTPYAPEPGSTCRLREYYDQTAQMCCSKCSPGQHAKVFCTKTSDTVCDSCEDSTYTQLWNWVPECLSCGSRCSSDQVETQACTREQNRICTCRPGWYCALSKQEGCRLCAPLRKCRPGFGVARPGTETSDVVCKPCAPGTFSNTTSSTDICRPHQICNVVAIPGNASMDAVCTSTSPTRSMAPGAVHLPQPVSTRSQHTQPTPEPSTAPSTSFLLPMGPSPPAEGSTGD
# How it was run: (§1)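 Biotinylated avi-tagged human TNFR1 or TNFR2 ECD, expressed in Sf21 insect cells, captured on streptavidin SPR chip; peptide analytes run in 10 mM HEPES pH 7.4, 150 mM NaCl, 3 mM EDTA, 0.05% P20, 2% DMSO. kon and koff measured, affinity KA calculated.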
# [3] = target: T3, human TNFR1 extracellular domain (ECD) protein (Homo sapiens, UniProt P19438); test: SPR binding affinity to captured human TNFR1 ECD
# T3 construct: HRV 3C protease cleavage site (C); 6His (C, cleaved yes); made in house; host or cells: Sf21 insect cells (baculovirus), secreted
# T3 sequence (P19438 30-211): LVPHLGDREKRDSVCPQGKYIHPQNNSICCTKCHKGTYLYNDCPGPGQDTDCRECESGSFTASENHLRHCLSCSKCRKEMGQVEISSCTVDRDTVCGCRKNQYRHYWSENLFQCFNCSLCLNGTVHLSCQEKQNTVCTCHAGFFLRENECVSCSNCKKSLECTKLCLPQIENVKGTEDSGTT
# How it was run: as §1
# [4] = biotinylated human TNFR2 ECD on streptavidin chip, read-out: SPR hTNFR2 KD
# [5] = biotinylated human TNFR1 ECD on streptavidin chip, from kon and koff, read-out: SPR hTNFR1 KD
SMILES,IC50 [1],Kd [2],Kd [3],"Kd [2, 4]","Kd [3, 5]"
"CCCC[C@@H]1NC(=O)[C@@H]2CC[C@@H](C2)NC(=O)[C@H]([C@@H](C)c2c[nH]c3c(OC)cccc23)NC(=O)CN(C)C(=O)[C@H](Cc2ccc(O)cc2)NC(=O)[C@H](Cc2ccc(C(=O)O)cc2)NC(=O)[C@](C)(CO)NC(=O)[C@H](Cc2c[nH]c3c(Cl)cccc23)NC(=O)[C@H](Cc2ccncc2)NC(=O)[C@H](CC(N)=O)NC(=O)CN(CCO)C(=O)[C@H](Cc2c[nH]c3ccccc23)NC(=O)[C@@H]2CNCCN2C(=O)[C@H](Cc2ccncc2)NC1=O [SEQ ID NO. 72] (cyclo([4Pal][Trp(7-Cl)][αMeS][Phe(4-COOH)]Y[Sar][Trp(βS-Me,7-OMe)][X1][Nle][4Pal][Pip(4-aza)]W[Gly(N-CH2CH2OH)]N))",0.8 nM,> 1000 nM,0.05 nM,–,–
"CCCC[C@@H]1NC(=O)[C@@H]2CC[C@@H](C2)NC(=O)[C@H]([C@@H](C)c2c[nH]c3c(OC)cccc23)NC(=O)CN(C)C(=O)[C@H](Cc2ccc(O)cc2)NC(=O)[C@H](Cc2ccc(C(N)=O)cc2)NC(=O)[C@](C)(CO)NC(=O)[C@H](Cc2c[nH]c3c(Cl)cccc23)NC(=O)[C@H](Cc2ccncc2)NC(=O)[C@H](CC(N)=O)NC(=O)[C@H](CCC(=O)O)N(C)C(=O)[C@H](Cn2ncc3ccccc32)NC(=O)[C@@H]2CC[C@@H](O)CN2C(=O)[C@H](Cc2ccncc2)NC1=O [SEQ ID NO. 74] (cyclo([4Pal][Trp(7-Cl)][αMeS][Phe(4-CONH2)]Y[Sar][Trp(βS-Me,7-OMe)][X1][Nle][4Pal][Pip(5R-OH)][Ala(indazol-1-yl)][NMeE]N))",0.5 nM,> 1000 nM,0.12 nM,–,–
"CCCCC[C@@H]1NC(=O)[C@@H]2CC[C@@H](C2)NC(=O)[C@H]([C@@H](C)c2c[nH]c3c(OC)cccc23)NC(=O)CN(C)C(=O)[C@H](Cc2ccc(C(N)=O)cc2)NC(=O)[C@H](Cc2ccc(C(N)=O)cc2)NC(=O)[C@](C)(CO)NC(=O)[C@H](Cc2c[nH]c3c(C#N)cccc23)NC(=O)[C@H](Cc2ccc(C(=O)O)cc2)NC(=O)[C@H](CC(N)=O)NC(=O)[C@H]2C[C@H](O)CN2C(=O)[C@H](Cc2c[nH]c3ccccc23)NC(=O)[C@H](CCC#N)NC(=O)[C@H]([C@@H](C)c2ccncc2)NC1=O [SEQ ID NO. 79] (cyclo([Ahp(2)][4Pal(3S-Me)][Abu(4-CN)]W[dHyp]N[Phe(4-COOH)][Trp(7-CN)][αMeS][Phe(4-CONH2)][Phe(4-CONH2)][Sar][Trp(βS-Me,7-OMe)][X1]))",1.3 nM,> 1000 nM,0.05 nM,–,–
"CCCC[C@@H]1NC(=O)[C@@H]2CC[C@@H](C2)NC(=O)[C@H]([C@@H](C)c2c[nH]c3c(OC)cccc23)NC(=O)CN(C)C(=O)[C@H](Cc2ccc(O)cc2)NC(=O)[C@H](Cc2ccc(OCC(=O)O)cc2)NC(=O)[C@](C)(CO)NC(=O)[C@H](Cc2c[nH]c3c(Cl)cccc23)NC(=O)[C@H](Cc2ccncc2)NC(=O)[C@H](CC(N)=O)NC(=O)[C@H](CCC(=O)O)N(C)C(=O)[C@H](Cc2c[nH]c3ccccc23)NC(=O)[C@@H]2CNCCN2C(=O)[C@H](Cc2ccncc2)NC1=O [SEQ ID NO. 80] (cyclo([4Pal][Trp(7-Cl)][αMeS]Y(Carboxymethyl)Y[Sar][Trp(βS-Me,7-OMe)][X1][Nle][4Pal][Pip(4-aza)]W[NMeE]N))",1.2 nM,> 1000 nM,0.33 nM,–,–
"CCCC[C@@H]1NC(=O)[C@@H]2CC[C@@H](C2)NC(=O)[C@H]([C@@H](C)c2c[nH]c3c(OC)cccc23)NC(=O)CN(C)C(=O)[C@H](Cc2ccc(C(=O)O)cc2)NC(=O)[C@H](Cc2ccc(C(N)=O)cc2)NC(=O)[C@](C)(CO)NC(=O)[C@H](Cc2c[nH]c3c(Cl)cccc23)NC(=O)[C@H](Cc2ccncc2)NC(=O)[C@H](CC(N)=O)NC(=O)[C@H]2C[C@H](O)CN2C(=O)[C@H](Cc2c[nH]c3ccccc23)NC(=O)[C@@H]2CNCCN2C(=O)[C@H](Cc2ccncc2)NC1=O [SEQ ID NO. 83] (cyclo([4Pal][Trp(7-Cl)][αMeS][Phe(4-CONH2)][Phe(4-COOH)][Sar][Trp(βS-Me,7-OMe)][X1][Nle][4Pal][Pip(4-aza)]W[dHyp]N))",0.6 nM,–,–,> 1000 nM,0.09 nM
"CCCCC[C@@H]1NC(=O)[C@@H]2CC[C@@H](C2)NC(=O)[C@H]([C@@H](C)c2c[nH]c3c(OC)cccc23)NC(=O)CN(C)C(=O)[C@H](Cc2cccc(C(N)=O)c2)NC(=O)[C@H](Cc2ccc(C(N)=O)cc2)NC(=O)[C@](C)(CO)NC(=O)[C@H](Cc2c[nH]c3c(C#N)cccc23)NC(=O)[C@H](Cc2ccc(C(=O)O)cc2)NC(=O)[C@H](CC(N)=O)NC(=O)[C@H]2C[C@@H](N(C)C)CN2C(=O)[C@H](Cc2c[nH]c3ccccc23)NC(=O)[C@@H]2CC[C@@H](O)CN2C(=O)[C@H](Cc2ccncc2)NC1=O [SEQ ID NO. 84] (cyclo([4Pal][Pip(5R-OH)]W[X9]N[Phe(4-COOH)][Trp(7-CN)][αMeS][Phe(4-CONH2)][Phe(3-CONH2)][Sar][Trp(βS-Me,7-OMe)][X1][Ahp(2)]))",0.6 nM,> 1000 nM,0.02 nM,–,–
"CCCC[C@@H]1NC(=O)[C@@H]2CC[C@@H](C2)NC(=O)[C@H]([C@@H](C)c2c[nH]c3c(OC)cccc23)NC(=O)CN(C)C(=O)[C@H](Cc2ccc(C(=O)O)cc2)NC(=O)[C@H](Cc2ccc(C(N)=O)cc2)NC(=O)[C@](C)(CO)NC(=O)[C@H](Cc2c[nH]c3c(C#N)cccc23)NC(=O)[C@H](Cc2ccc(C(=O)O)cc2)NC(=O)[C@H](CC(N)=O)NC(=O)[C@H]2C[C@H](N)CN2C(=O)[C@H](Cc2cn(CC(=O)O)c3ccccc23)NC(=O)[C@@H]2CC[C@@H](O)CN2C(=O)[C@H](Cc2ccncc2)NC1=O [SEQ ID NO. 104] (cyclo([4Pal][Pip(5R-OH)][Trp(1-CH2COOH)][dPro(4S-NH2)]N[Phe(4-COOH)][Trp(7-CN)][αMeS][Phe(4-CONH2)][Phe(4-COOH)][Sar][Trp(βS-Me,7-OMe)][X1][Nle]))",1 nM,–,–,> 1000 nM,0.02 nM
"CCCC[C@@H]1NC(=O)CSC[C@@H](C(N)=O)NC(=O)[C@H]([C@@H](C)c2c[nH]c3c(OC)cccc23)NC(=O)CN(C)C(=O)[C@H](Cc2ccc(O)cc2)NC(=O)[C@H](Cc2ccc(C(=O)O)cc2)NC(=O)[C@](C)(CO)NC(=O)[C@H](Cc2c[nH]c3c(Cl)cccc23)NC(=O)[C@H](Cc2ccncc2)NC(=O)[C@H](CC(N)=O)NC(=O)[C@H](C)N(CC)C(=O)[C@H](Cc2c[nH]c3ccccc23)NC(=O)[C@@H]2COC(C)(C)CN2C(=O)[C@H](Cc2ccncc2)NC1=O [SEQ ID NO. 183] ({CH2CO}-[Nle][4Pal][Morpholine(3S-CO,6,6-Me2)]W[NEtAla]N[4Pal][Trp(7-Cl)][αMeS][Phe(4-COOH)]Y[Sar][Trp(βS-Me,7-OMe)]C-NH2; thioether N-14)",2.8 nM,–,–,> 1000 nM,0.1 nM
"CCCC[C@@H]1NC(=O)[C@@H]2CC[C@@H](C2)NC(=O)[C@H]([C@@H](C)c2c[nH]c3c(OC)cccc23)NC(=O)CN(C)C(=O)[C@H](Cc2ccc(C(N)=O)cc2)NC(=O)[C@H](Cc2ccc(C(N)=O)cc2)NC(=O)[C@](C)(CO)NC(=O)[C@H](Cc2c[nH]c3c(Cl)cccc23)NC(=O)[C@H](Cc2ccc(C(=O)O)cc2)NC(=O)[C@H](CC(N)=O)NC(=O)[C@H]2C[C@H](O)CN2C(=O)[C@H](Cc2c[nH]c3ccccc23)NC(=O)[C@@H]2CC[C@@H](O)CN2C(=O)[C@H](Cc2ccncc2)NC1=O [SEQ ID NO. 196] (cyclo([4Pal][Pip(5R-OH)]W[dHyp]N[Phe(4-COOH)][Trp(7-Cl)][αMeS][Phe(4-CONH2)][Phe(4-CONH2)][Sar][Trp(βS-Me,7-OMe)][X1][Nle]))",0.6 nM,–,–,> 1000 nM,0.05 nM
